Measurements as given in paper PMC11256326, “Discovery of Heparin Mimetic, Potent, and Selective Inhibitors of Human Clotting Factor XIIIa” (ACS Omega, 2024).

How the values were obtained:
[1] = target: T1, factor Xa (Homo sapiens, UniProt P00742); assay: chromogenic substrate hydrolysis assay, factor Xa; assay type: biochemical; settings: for IC50: Tris-HCl pH 7.4, 37 °C, > values from highest concentration used, read-out: FXa IC50; for FXa HS (Hill slope) / FXa ΔY (efficacy): pH 7.4, 37 °C
T1 construct: Human plasma proteins such as FXIIIa, thrombin, factor Xa, and factor XIa; purchased Haematologic Technologies; host or cells: human plasma
T1 sequence (P00742 235-488 limits assumed): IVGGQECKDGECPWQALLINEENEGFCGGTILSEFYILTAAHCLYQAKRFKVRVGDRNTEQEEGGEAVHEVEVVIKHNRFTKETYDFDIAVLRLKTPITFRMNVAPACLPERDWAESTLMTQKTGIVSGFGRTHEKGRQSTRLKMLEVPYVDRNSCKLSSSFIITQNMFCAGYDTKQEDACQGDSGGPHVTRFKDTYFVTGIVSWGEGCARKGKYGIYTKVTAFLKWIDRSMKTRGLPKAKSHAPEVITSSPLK
T1 sequence (P00742 41-179 limits assumed): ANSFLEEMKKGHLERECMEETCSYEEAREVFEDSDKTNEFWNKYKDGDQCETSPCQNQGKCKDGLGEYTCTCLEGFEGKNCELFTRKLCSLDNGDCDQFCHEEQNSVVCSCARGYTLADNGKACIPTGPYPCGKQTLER
Excerpt: One of the motivations for targeting anion-binding sites on human FXIIIa was to achieve selectivity in inhibition over closely related enzymes such as other clotting serine proteases or other transglutaminases and cysteine proteases.
Human plasma proteins such as FXIIIa, thrombin, factor Xa, and factor XIa were procured from Haematologic Technologies. Recombinant human TG-2 was sourced from Tocris Bioscience. Their activities were validated according to the supplier’s instructions. Chromogenic substrates for thrombin and factor Xa were acquired from Biomedica Diagnostics, while the factor XIa chromogenic substrate (S-2366) was obtained from Diapharma. Dithiothreitol, N,N-dimethylcasein, and dansylcadaverine were purchased from Sigma Aldrich. Stock solutions of thrombin and factor XIa were prepared in 50 mM Tris-HCl buffer, pH 7.4, containing 150 mM sodium chloride, 0.1% PEG8000, and 0.02% Tween80. The stock solution of factor Xa was prepared in 20 mM Tris-HCl buffer, pH 7.4, containing 100 mM sodium chloride, 0.1% PEG8000, 2.5 mM CaCl2, and 0.02% Tween80. The stock solutions of FXIIIa and rTG-2 were prepared in 50 mM Tris-HCl, 1 mM CaCl2, 100 mM sodium chloride, 0.02% Tween80, 0.1% PEG8000, and 2 mg/mL dimethylcasein. Papain and its chromogenic substrate (N-α-benzoyl-L-arginyl-4-nitroanilide) were obtained from Sigma Aldrich. Papain was prepared in 50 mM Tris-HCl buffer, pH 7.4, containing 100 mM NaCl, 100 mM DTT, 2.5 mM CaCl2, 0.1% PEG8000, and 0.02% Tween80. Human plasma for coagulation assays was obtained from George King Bio-Medica for the clotting assays. Thromboplastin-D (PT reagent), APTT reagent containing ellagic acid, and 0.025 M solution of CaCl2 were obtained from Thermo Fisher Scientific. Results were reproduced at least three times.
The inhibitory potential of various heparin mimetics against other clotting factors, including thrombin, factor Xa, and factor XIa, was also examined using established chromogenic substrate hydrolysis assays.[47],[50] For instance, in each well of a 96-well microplate containing either 85 or 185 μL of 20–50 mM Tris-HCl buffer (pH 7.4), supplemented with 100–150 mM NaCl, 0.1% PEG8000, and 0.02% Tween80 at either 25 or 37 °C, 5 μL of the inhibitor (or high purity water) and 5 μL of the enzyme were added. The final concentrations of the enzymes were 6 nM (thrombin), 1.09 nM (factor Xa), and 0.8 nM (factor XIa). After a 5 min incubation period, 5 μL of Spectrozyme TH (final concentration: 0.050 mM), Spectrozyme FXa (0.125 mM), or factor XIa substrate (0.35 mM) was swiftly added, and the residual enzyme activity was gauged from the initial rate of increase in absorbance at λ405 nm. The relative residual enzyme activity was calculated as a function of the inhibitor concentration. If 50% or more of the enzyme was inhibited, the results were then plotted using eq 1 to determine the corresponding IC50 values.

[2] = system: MCF-7 human breast carcinoma cells; assay: cell viability, Alamar Blue, MCF-7; assay type: cell-based; settings: MCF-7, 10 μM, 3 days
Experimental: (§1) To further evaluate the selectivity as well as the potential toxicity of inhibitors, we studied their effects on the clotting times of normal human plasma as well as their effects on the proliferation of three cell lines. On the one hand, the inhibitors’ effects on activated partial thromboplastin time (APTT) and prothrombin time (PT) were measured, as described earlier under in vitro conditions,[52]−[55] using variable concentrations (0–2000 μM) (Table 3). […] On the other hand, the antiproliferative properties of inhibitors 13 and 16 were evaluated in three cell lines of breast (MCF-7), intestine (CaCo-2), and kidney (HEK-293) (Figure 5B), as described earlier.[56] […] Overall, inhibitor 16 can be considered for further development as a potent, selective, and nontoxic inhibitor of human FXIIIa.
(§2) HEK-293 human embryonic kidney cells,[66] CaCo-2 heterogeneous human epithelial colorectal adenocarcinoma cells,[67] and MCF-7 human breast carcinoma cells[68] were treated as reported previously.[69],[70] […] Subsequently, fluorescence readings (λEx. = 560 nm and λEm. = 590 nm) were taken using the Synergy H1 multiplate reader (BioTek) to quantify cell numbers both in the absence (utilizing distilled water as a control) and the presence of inhibitors 13 and 16 (at a concentration of 10 μM; incubated for 3 days). […]

[3] = system: HEK-293 human embryonic kidney cells; assay: cell viability, Alamar Blue, HEK-293; assay type: cell-based; settings: HEK-293, 10 μM, 3 days
Experimental: as §1, §2

[4] = system: CaCo-2 heterogeneous human epithelial colorectal adenocarcinoma cells; assay: cell viability, Alamar Blue, CaCo-2; assay type: cell-based; settings: CaCo-2, 10 μM, 3 days
Experimental: as §1, §2

[5] = system: normal human plasma; assay: prothrombin time (PT) of normal human plasma; assay type: biochemical; settings: in vitro
Experimental: as §1
Clotting times, including activated partial thromboplastin time (APTT) and prothrombin time (PT), were assessed in normal human plasma utilizing the BBL Fibrosystem fibrometer from Becton–Dickinson, as detailed in previous publications.[51]−[54] For the PT assay, thromboplastin-D was dissolved in 4 mL of highly purified water and then warmed to 37 °C. Subsequently, 10 μL of the inhibitor was added to 90 μL of normal human plasma and incubated for 30 s. Following this, 200 μL of prewarmed PT reagent was added, and the clotting time was recorded. In the APTT assay, 10 μL of the inhibitor was combined with 90 μL of normal human plasma and 100 μL of prewarmed APTT reagent (0.2% ellagic acid). After incubation for 4 min at 37 °C, clotting was initiated by adding 100 μL of prewarmed 0.025 M CaCl2, and the clotting time was documented. Multiple concentrations of each molecule were employed in both assays to establish a concentration vs effect curve.

SMILES | FXa HS (Hill slope) [1] | FXa ΔY (efficacy) [1] [%] | selectivity index for FXIIIa over factor Xa [1] | IC50 [1] [µM] | effect on proliferation / cell viability [2] | effect on proliferation / cell viability [3] | effect on proliferation / cell viability [4] | PT2X (concentration required to double PT) [5] [µM]
Nc1c(/N=N/c2ccc(S(=O)(=O)CCOS(=O)(=O)O)cc2)c(S(=O)(=O)O)cc2cc(S(=O)(=O)O)c(/N=N/c3ccc(S(=O)(=O)CCOS(=O)(=O)O)cc3)c(O)c12 [compound 16] | – | – | > 208 fold | > 500 | does not significantly affect the proliferation | does not significantly affect the proliferation | does not significantly affect the proliferation | –
Nc1c(S(=O)(=O)O)cc(Nc2ccc(Nc3nc(Cl)nc(Nc4ccccc4S(=O)(=O)O)n3)c(S(=O)(=O)O)c2)c2c1C(=O)c1ccccc1C2=O [compound 13] | 1.5 ± 0.5 | 87 ± 4 | 20 fold | 63.5 ± 13 | does not significantly affect the proliferation | does not significantly affect the proliferation | does not significantly affect the proliferation | –
COc1cc(-c2ccc(/N=N/c3ccc4c(S(=O)(=O)O)cc(S(=O)(=O)O)c(N)c4c3O)c(OC)c2)ccc1/N=N/c1ccc2c(S(=O)(=O)O)cc(S(=O)(=O)O)c(N)c2c1O [compound 19] | – | – | at least 7 fold | > 100 | – | – | – | 3073.2 ± 281

Second part, led by results:

FXa HS (Hill slope) [1] | FXa ΔY (efficacy) [1] [%] | SMILES | selectivity index for FXIIIa over factor Xa [1] | IC50 [1] [µM] | effect on proliferation / cell viability [2] | effect on proliferation / cell viability [3] | effect on proliferation / cell viability [4] | PT2X (concentration required to double PT) [5] [µM]
2.5 ± 0.9 | 53 ± 5 | Nc1c(/N=N/c2ccc(Nc3nc(Cl)nc(Nc4cccc(S(=O)(=O)O)c4)n3)cc2S(=O)(=O)O)c(S(=O)(=O)O)cc2c(O)c(/N=N/c3ccc(Nc4nc(Cl)nc(Nc5cccc(S(=O)(=O)O)c5)n4)cc3S(=O)(=O)O)ccc12 [compound 14] | 6 fold | 31 ± 5.7 | – | – | – | –
1.9 ± 0.2 | 80 ± 2 | Cc1cc(-c2ccc(/N=N/c3ccc4c(S(=O)(=O)O)cc(S(=O)(=O)O)c(N)c4c3O)c(C)c2)ccc1/N=N/c1ccc2c(S(=O)(=O)O)cc(S(=O)(=O)O)c(N)c2c1O [compound 18] | – | – | – | – | – | 497.9 ± 52
